According to article PMC4555001 (Bioorganic & medicinal chemistry, 2015):
Entries after “also recorded” stand apart in the source; their conditions may differ.

Columns and labels:
ETA receptors [1] = assay: Inhibition of ET-1 induced vasoconstriction in the gerbil spiral modiolar artery; conditions: agonist 1 nM ET-1; antagonist 0.1-1 μM; competitive inhibition assumed
ETA receptor [2] = conditions: read-out: Ki, ET-1 induced contraction of rat aortic strips; ref [6]-[9]; cited from earlier work
ETA receptor [3] = conditions: rat cardiac membranes; ref [6]-[9]; cited from earlier work
[4] = test system: voltage-gated Na^+ currents (TTX-sensitive); assay: Patch clamp recording of voltage-gated Na+ currents in mouse DRG neurons; format: cell-based
[5] = test system: voltage-gated Ca^2+ currents (LVA, principally Cav3.2 T-type; HVA, mainly L-type); assay: Patch clamp recording of voltage-gated Ca2+ currents in mouse DRG neurons; format: cell-based
[6] = test system: voltage-gated K^+ currents; assay: Patch clamp recording of voltage-gated K+ currents in mouse DRG neurons; format: cell-based
ETA receptors [7] = conditions: ref [25], cited from earlier work

CC1(C)C(=O)CC[C@]2(C)[C@H]3CC[C@@H]4CCC(=O)C[C@@]4(C#N)[C@]3(C)CC[C@@H]12 [(+)-2, (+)-(4aS,4bR,6aR,10aR,10bR,12aR)-4b,7,7,10a-Tetramethyl-3,8-dioxo-octadecahydrochrysene-4a-carbonitrile]
A2 (putative affinity value) (ETA receptors [1]): 134 nM

CC1(C)C(=O)CC[C@]2(C)[C@H]3CCc4ccc(O)cc4[C@]3(C)CC[C@@H]12 [(-)-5, (-)-(4aR,4bR,10bR)-9-Hydroxy-1,1,4a,10b-tetramethyl-3,4,4a,4b,5,6,10b,11,12,12a-decahydrochrysen-2(1H)-one]
A2 (putative affinity value) (ETA receptors [1]): 205 nM

CC1(C)C(=O)CC[C@]2(C)[C@H]3CC[C@@H]4CCC(=O)C=C4[C@]3(C)CC[C@@H]12 [(+)-1, (+)-(4aR,10bR)-1,1,4a,10b-Tetramethyl-4,4a,4b,5,6,6a,7,8,10b,11,12,12a-dodecahydro-chrysene-2,9(1H,3H)-dione]
A2 (putative affinity value) (ETA receptors [1]): 193 nM

CC1(C)[C@@H]2CC[C@]3(C)[C@H](CC[C@@H]4CC[C@@]5(O)C[C@]43C=N5)[C@@]2(C)CCC12OCCO2 [(-)-4, (-)-Spiro-(10a, 9)-{(4aR,4bR,6aR,10aS,10bR,12aR)-1,1,4a,10b-tetramethyl-3,4,4a,4b,5,6,6a,7,10,10a,10b,11,12,12a-tetradecahydro-1H-spiro[chrysene-2,2′-[1,3]dioxolane]-10a-yl}methyl-hemiaminal]
A2 (putative affinity value) (ETA receptors [1]): 301 nM

CC1(C)CC[C@]2(C(=O)O)CC[C@]3(COC(=O)/C=C/c4ccc(O)c(O)c4)C(=CC[C@@H]4[C@@]5(C)CCC(=O)C(C)(C)[C@@H]5CC[C@]43C)[C@@H]2C1 [(+)-myriceric acid A, myriceric acid A]
Ki (ETA receptor [2]): 66 ± 15 nM | Effect on specific binding of [125I]endothelin-1 (ETA receptor [3]): antagonizes specific binding | A2 (putative affinity value) (ETA receptors [1]): 85 nM

CC1(C)[C@@H]2CC[C@]3(C)[C@H](CC[C@@H]4CC=C(O[Si](C)(C)C(C)(C)C)C[C@]43C=N)[C@@]2(C)CCC12OCCO2 [(-)-3, (-)-{(4aR,4bR,6aR,10a S,10bR,12aR)-9-(tert-Butyldimethylsilyloxy)-1,1,4a,10b-tetramethyl-3,4,4a,4b,5,6,6a,7,10,10a,10b,11,12,12a-tetradecahydro-1H-spiro[chrysene-2,2′-[1,3]dioxolane]-10a-yl}methanimin]
Inhibition of Na+ currents ([4]; 0.3 μM (as stated in conclusions)): little inhibitions | Inhibition of Na+ currents ([4]; 3 μM): non-specific inhibition | Inhibition of Na+ currents ([4]; 0.1 - 0.3 μM, depolarizing to 0 mV for 20 ms): little inhibition; also recorded: little inhibitory effect | Inhibition of Ca2+ currents ([5]; 3 μM): completely block; also recorded: non-specific inhibition | Inhibition of Ca2+ currents ([5]; 0.1 and 0.3 μM, step to -10 mV from Vh -90 mV): substantially inhibited | Inhibition of LVA- and HVA-Ca2+ currents ([5]; bath application 0.1 - 3 μM): concentration-dependent inhibition; also recorded: concentration-dependent blockage | Inhibition of K+ currents ([6]; 3 μM): non-specific inhibition | Inhibition of K+ currents ([6]; 0.1 - 0.3 μM, depolarizing to 70 mV for 300 ms): little inhibition; also recorded: little inhibitory effect | A2 (putative affinity value) (ETA receptors [1]): 93 nM

CC1(C)C(=O)CC[C@]2(C)[C@H]3CCc4ccc(OCCO)cc4[C@]3(C)CC[C@@H]12 [(-)-6, (-)-(4aR,10bR)-9-(2-Hydroxyethoxy)-1,1,4a,10b-tetramethyl-4,4a,5,6,10b,11,12,12a-octahydro-(1 H,3H,4bH)-chrysen-2-one]
A2 (putative affinity value) (ETA receptors [1]): 318 nM

Endothelin-1 [ET-1]
Emax, normalized maximal vasoconstriction (ETA receptors [7]; normalized to 10 mM Ca2+ vasoconstriction): 140% | EC50 (ETA receptors [7]; read-out: EC50 of vasoconstriction, gerbil spiral modiolar artery): 0.74 nM
